This passage reports Kd results from paper PMC10286718, “Amino Acid Starvation-Induced Glutamine Accumulation Enhances Pneumococcal Survival” (mSphere, 2023).

One test deals with T1, SPD1098 SBD1 (GlnP) (Streptococcus pneumoniae, UniProt A0A0H2ZPN9).
T1 construct: gene SPD_1098
T1 sequence (A0A0H2ZPN9 24-247): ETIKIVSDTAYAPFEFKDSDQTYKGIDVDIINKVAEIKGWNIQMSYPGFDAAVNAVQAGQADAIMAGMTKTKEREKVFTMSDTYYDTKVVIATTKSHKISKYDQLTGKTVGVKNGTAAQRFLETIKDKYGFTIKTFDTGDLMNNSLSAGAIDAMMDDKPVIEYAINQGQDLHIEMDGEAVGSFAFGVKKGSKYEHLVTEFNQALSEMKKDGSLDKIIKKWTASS
The test can be described thus: isothermal titration calorimetry. The class given is binding. From the text:
isothermal titration calorimetry on SPD1098 SBD1 (GlnP)
A general note: ITC needs no label: the signal is the heat of the interaction.

The target of another test is T2, SPD1098 SBD2 (GlnP) (Streptococcus pneumoniae, UniProt A0A0H2ZPN9).
T2 construct: gene SPD_1098
T2 sequence (A0A0H2ZPN9 262-488): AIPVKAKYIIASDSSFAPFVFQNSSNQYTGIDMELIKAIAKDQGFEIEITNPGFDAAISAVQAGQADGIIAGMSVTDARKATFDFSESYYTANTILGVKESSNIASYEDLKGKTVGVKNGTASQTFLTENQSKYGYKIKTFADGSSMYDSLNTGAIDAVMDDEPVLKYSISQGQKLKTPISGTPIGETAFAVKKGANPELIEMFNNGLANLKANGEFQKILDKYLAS
The test can be described thus: isothermal titration calorimetry. The class given is binding. From the text:
isothermal titration calorimetry on SPD1098 SBD2 (GlnP)

By Kd is commonly meant the concentration at which binding is half-saturated. A high value points to lower affinity. For the compound `NC(=O)C[C@H](N)C(=O)O` [asparagine], binding at SPD1098 SBD1 (GlnP) was put at a Kd of 1.09 µM.
Turning to `NC(=O)CC[C@H](N)C(=O)O` [glutamine], the Kd at SPD1098 SBD2 (GlnP) turned out to be 0.89 µM.
